# According to patent US5625046A, “Hydroxyl projecting groups for organic synthesis” (King's College London, priority 1986, dated 1997):
# Key:
# [1] = concomitant removal of 2'-O-Ctmp group during removal of 5'-O-(9-phenylxanthen-9-yl) group (trifluoroacetic acid/pyrrole in dichloromethane); assay type: physicochemical; conditions: in the time required for complete removal of the 5'-O-(9-phenylxanthen-9-yl) group, 5.5 mol. equiv. trifluoroacetic acid, 16.5 mol. equiv. pyrrole, room temperature
# Method: Following the above scheme, the latter compound was then converted by the conventional two-step procedure into the fully-protected dinucleoside phosphate in ca 83% overall yield. When a 0.025M solution of the fully-protected dinucleoside phosphate in dichloromethane was treated with 5.5 mol. equiv. of trifluoroacetic acid and 16.5 mol. equiv. of pyrrole for 30 seconds at room temperature, no starting material remained and the partially-protected dinucleoside phosphate was isolated from the products In 95.5% yield. When the acid treatment of the fully-protected dinucleoside phosphate was extended to 30 minutes under the same conditions, the partially-protected dinucleoside phosphate was isolated in 85% yield. From such results, it may be estimated that less than 0.2% concomitant removal of the 2'-O-Ctmp group occurs in the time required for the complete removal of the 5'-O-(9-phenylxanthen-9-yl) protecting group.
# [2] = removal of 2'-protecting groups by acidic hydrolysis at 25° C. (HPLC); assay type: physicochemical; conditions: for t0.99 (calculated time for 99% removal of the 2'-protecting group) / t1/2 (half-time): 25° C.; for t1/2 (half-time): hydrochloric acid or 0.2M glycine hydrochloride buffer; for rate of hydrolysis, times faster at pH 1.0 than at pH 3.0: pH 1.0 vs pH 3.0
# Method: The removal of 2'-protecting groups by acidic hydrolysis at 25° C. was then investigated. Substrates as indicated below (ca 0.5-1.0 mg) were dissolved in 3.0 ml of hydrochloric acid or 0.2M glycine hydrochloride buffer at the specified pH. Aliquots (0.2 ml) of the reaction solutions were removed after suitable intervals of time, neutralized with triethylammonium bicarbonate and analyzed by HPLC (Jones "APEX ODS" column).
# (b) t0.99 =calculated time for 99% removal of the 2'-protecting group.
Structure (SMILES),"rate of hydrolysis, dependence on pH ([2]; between pH 0.5 and 1.5)",t0.99 (calculated time for 99% removal of the 2'-protecting group) ([2]; pH 0.5),t1/2 (half-time) ([2]; pH 0.5),t0.99 (calculated time for 99% removal of the 2'-protecting group) ([2]; pH 1.0),t1/2 (half-time) ([2]; pH 1.0),"rate of hydrolysis, times faster at pH 1.0 than at pH 3.0 [2]",t0.99 (calculated time for 99% removal of the 2'-protecting group) ([2]; pH 1.5),t1/2 (half-time) ([2]; pH 1.5),t0.99 (calculated time for 99% removal of the 2'-protecting group) ([2]; pH 2.0),t1/2 (half-time) ([2]; pH 2.0),t0.99 (calculated time for 99% removal of the 2'-protecting group) ([2]; pH 2.5),t1/2 (half-time) ([2]; pH 2.5),t0.99 (calculated time for 99% removal of the 2'-protecting group) ([2]; pH 3.0),t1/2 (half-time) ([2]; pH 3.0),t0.99 (calculated time for 99% removal of the 2'-protecting group) ([2]; pH 3.5),t1/2 (half-time) ([2]; pH 3.5),"rate of hydrolysis, dependence on pH (in words) ([2]; with decreasing pH)",stability of protecting group for the desired purposes (in words) [2],concomitant removal of the 2'-O-Ctmp group [1],effect of vicinal phosphotriester group on acid-catalyzed hydrolysis of Ctmp (in words) [2]
COC1(O[C@@H]2[C@H](OP(=O)(OC[C@H]3O[C@@H](n4ccc(=O)[nH]c4=O)[C@H](OC(C)=O)[C@@H]3OC(C)=O)Oc3ccccc3Cl)[C@@H](COC3(c4ccccc4)c4ccccc4Oc4ccccc43)O[C@H]2n2ccc(=O)[nH]c2=O)CCN(c2ccc(C)cc2Cl)CC1 (some centres unmarked) [fully-protected dinucleoside phosphate],,,,,,,,,,,,,,,,,,,less than 0.2%,
COC1(O[C@@H]2[C@H](O)[C@@H](CO)O[C@H]2n2ccc(=O)[nH]c2=O)CCN(c2ccc(C)cc2Cl)CC1,virtually unchanged,223 min,33.5 min,236 min,35.5 min,~2.25 times,233 min,35 min,272 min,41 min,345 min,52 min,532 min,80 min,1120 min,168 min,,,,
COC1(O[C@@H]2[C@H](O)[C@@H](CO)O[C@H]2n2ccc(=O)[nH]c2=O)CCOCC1 [reference compound],,,,6 min,0.9 min,140 times,,,136 min,20.5 min,,,837 min,126 min,,,increases sharply with decreasing pH,,,

# More lines, main results first:
"rate of hydrolysis, dependence on pH ([2]; between pH 0.5 and 1.5)",t0.99 (calculated time for 99% removal of the 2'-protecting group) ([2]; pH 0.5),t1/2 (half-time) ([2]; pH 0.5),t0.99 (calculated time for 99% removal of the 2'-protecting group) ([2]; pH 1.0),t1/2 (half-time) ([2]; pH 1.0),"rate of hydrolysis, times faster at pH 1.0 than at pH 3.0 [2]",t0.99 (calculated time for 99% removal of the 2'-protecting group) ([2]; pH 1.5),t1/2 (half-time) ([2]; pH 1.5),t0.99 (calculated time for 99% removal of the 2'-protecting group) ([2]; pH 2.0),t1/2 (half-time) ([2]; pH 2.0),t0.99 (calculated time for 99% removal of the 2'-protecting group) ([2]; pH 2.5),t1/2 (half-time) ([2]; pH 2.5),t0.99 (calculated time for 99% removal of the 2'-protecting group) ([2]; pH 3.0),t1/2 (half-time) ([2]; pH 3.0),t0.99 (calculated time for 99% removal of the 2'-protecting group) ([2]; pH 3.5),t1/2 (half-time) ([2]; pH 3.5),"rate of hydrolysis, dependence on pH (in words) ([2]; with decreasing pH)",stability of protecting group for the desired purposes (in words) [2],Structure (SMILES),concomitant removal of the 2'-O-Ctmp group [1],effect of vicinal phosphotriester group on acid-catalyzed hydrolysis of Ctmp (in words) [2]
,,,,,,,,143 min,21.5 min,156 min,23.5 min,,,,,,,COC1(O[C@@H]2[C@H](OP(=O)(O)OC[C@H]3O[C@@H](n4ccc(=O)[nH]c4=O)[C@H](O)[C@@H]3O)[C@@H](CO)O[C@H]2n2ccc(=O)[nH]c2=O)CCN(c2ccc(C)cc2Cl)CC1,,facilitates the acid-catalyzed hydrolysis
,,,3300 min,498 min,,,,4380 min,660 min,,,,,,,,too stable,COC1(O[C@@H]2[C@H](O)[C@@H](CO)O[C@H]2n2ccc(=O)[nH]c2=O)CCN(c2ccccc2)CC1 [reference compound],,
